In brackets after ≈: the same amount, converted by molar mass.
Columns and labels:
in vitro = details: PAMPA
Experimental: (§3) The BBB-PAMPA was conducted following the manufacturer's instructions (pION, Inc, MA, USA). […] The transmembrane side to the donor part was coated with BBB-lipid solution and 200 μL acceptor buffer was added in the upper chambers of the PAMPA sandwich plate. After incubation for 4 h at 25° C., all samples were transferred to a new U.V plate and then the U.V spectra were measured at a wavelength from 250 nm to 498 nm with a multifunctional microplate reader (Tecan, Infinite M200 Pro, San Jose, Calif., USA) and the permeability rate (Pe, 10^−6 cm/s) was determined using pION PAMPA Explorer software (ver3.8).

[1] = BBB-penetrability PAMPA assay
Experimental: as §3

Aβ fibrils = target: T1, Aβ fibrils (Homo sapiens, UniProt P05067); experiment: Fluorescence response in the presence of Aβ fibrils; details: Aβ fibrils 20 μM versus PBS containing 2% DMF
T1 construct: lyophilized Aβ1-42 peptides were dissolved in 100% HFIP; purchased GenicBio Limited (Shanghai, China)
Experimental: (§1) To measure spectra in the presence of analytes, stock solutions of ThT and IRI-1 were prepared in DMF and added to solutions of the analytes in PBS to finally obtain a solution containing 2% DMF. All emission spectra were obtained after 2 min stirring at 37° C. The excitation and emission slit widths were 3/5.
(§2) Aβ1-42 protein was prepared following a literature procedure (J. Hatai, L. Motiei, D. Margulies, J. Am. Chem. Soc. 2017, 139, 2136-2139). Briefly, lyophilized Aβ1-42 peptides were dissolved in 100% HFIP (1,1,1,3,3,3-hexafluoro-2-isopropanol) at a concentration of 2 mg mL^−1 and incubated at 25° C. for 2 h. After incubation, solution was removed under a gentle flow of argon. The peptide was dried using a lyophilizer for 40 h. AO (1 mg) was resuspended in aqueous NaOH (0.5 mL, 2 mM) and sonicated at 0° C. for 10 min. HFIP/NaOH-treated AO samples were diluted to 200 μM with PBS (0.6 mL, […], pH=7.4) and agitated using a shaker (Biofree) for 30 h. The solution was diluted to 20 μM with PBS (9.9 mL, 20 mM, pH=7.4), prior to each experiment.

[2] = target: T2, bovine serum albumin (BSA) (Bos taurus, UniProt P02769); experiment: Fluorescence in the presence of BSA; details: BSA 20 μM, PBS pH 7.4, 2% DMF
T2 construct: purchased
T2 sequence (P02769 25-607): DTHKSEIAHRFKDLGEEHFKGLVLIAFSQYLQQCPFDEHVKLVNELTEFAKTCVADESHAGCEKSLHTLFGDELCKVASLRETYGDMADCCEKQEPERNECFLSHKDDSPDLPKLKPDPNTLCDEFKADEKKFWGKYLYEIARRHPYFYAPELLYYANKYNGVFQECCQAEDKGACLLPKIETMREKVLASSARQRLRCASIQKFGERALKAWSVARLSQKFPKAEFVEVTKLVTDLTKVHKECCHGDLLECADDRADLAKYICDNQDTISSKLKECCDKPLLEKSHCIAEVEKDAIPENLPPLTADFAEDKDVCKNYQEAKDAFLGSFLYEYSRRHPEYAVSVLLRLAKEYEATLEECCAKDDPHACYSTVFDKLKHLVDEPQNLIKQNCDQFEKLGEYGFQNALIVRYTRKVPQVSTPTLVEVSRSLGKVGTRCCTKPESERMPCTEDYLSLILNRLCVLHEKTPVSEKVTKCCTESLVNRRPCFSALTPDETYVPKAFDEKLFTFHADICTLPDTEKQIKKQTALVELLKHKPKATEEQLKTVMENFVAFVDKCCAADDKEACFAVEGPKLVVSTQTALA
Experimental: as §1

Aβ fibrils (Aβ1-42) = target: T3, Aβ fibrils (Aβ1-42) (Homo sapiens, UniProt P05067); experiment: Aβ1-42 saturation titration (fluorescence at 566 nm); type: binding
T3 construct: lyophilized Aβ1-42 peptides were dissolved in 100% HFIP; purchased GenicBio Limited (Shanghai, China)
T3 sequence (P05067 672-713 limits assumed): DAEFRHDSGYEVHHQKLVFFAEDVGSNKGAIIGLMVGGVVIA
Experimental: as §2
Both Aβ1-42 and IRI-1 are virtually non-fluorescent, and a simplified formula can be used where the fluorescence intensity is directly proportional to the concentration of the (Aβ1-42-IRI-1) complex only:
With F: a fluorescence proportionality factor, [IRI1]: the initial concentration of IRI-1, [Aβ]: the initial concentration of Aβ1-42, N: the number of equivalent binding sites on the Aβ fibril relative to Aβ monomer, and Kd: the dissociation constant.
The results in FIG. 1D were obtained following a multi-parameter optimization of the experimental results following the fluorescence intensity at 566 nm, using a concentration of 10 μM Aβ1-42 and incremental concentrations of IRI-1 in PBS containing 2% DMF. The slit width was set at 3/3. The best fittings were obtained for N=¼, i.e. one binding site per 4 Aβ1-42, consistent with the hypothesized high affinity cross-β-sheet binding site on the protein fibril.

Aβ plaques [3] = target: T4, Aβ plaques (Homo sapiens, UniProt P05067); experiment: In vivo two-photon microscopy imaging; parameters: species or system 5xFAD-Tg mice; depth up to which individual Aβ plaques could be detected: unit not given here
T4 construct: from tissue; host or cells: brain of 5xFAD-Tg mice: ex vivo slices at 11 months, in vivo frontal cortex at 10-12 months
T4 sequence (P05067 672-713 limits assumed): as above
Experimental: All animal studies and maintenance were approved by the Institutional Animal Care and Use Committee (IACUC) of Seoul National University, Korea. 10-12-month-old 5xFAD (Tg6799; Jackson Lab Stock No. 006554) AD model mice were anesthetized with the mixture of Tiletamine-Zolazepam (Virbac, France) and Xylazine (Bayer Korea, Korea) via intramuscular (IM) injection (1.2 mg kg^−1) and then fixed on a customized stereotactic heating plate (37° C., Live cell instrument, Seoul, Korea). The mouse scalp was sterilized with Povidone Iodine (Firson, Korea) and then removed. A drop of Epinephrine was applied to the incision site to relieve local pain and bleeding. The periosteum was also removed in this step. When the scalp and periosteum were clearly removed and the skull dried, a small hole (3 mm diameter) was carefully made in the parietal bone with a microdrill. A 5 mm round coverslip was attached to the surgery site with Loctite 454 and dental acrylate was applied around the site. A solution of IRI-1 in 25% DMSO/PBS (5 mg kg^−1) was injected intraperitoneally (i.p.) before TPM imaging. TPM live imaging was conducted using an LSM 7 MP two-photon laser-scanning microscope (Carl Zeiss Microscopy GmbH, Germany) equipped with a Chameleon-Ultra-II laser system (Coherent, USA). An appropriately tuned laser (780-920 nm wavelength, 30 mW intensity) was applied to the imaging site transiently. Emission signals were obtained through the red channel (555-610 nm), or blue channel (485-490 nm) NDD filter set. TPM images were processed and 3D reconstructed using Volocity Software (Perkin-Elmer, Waltham, Mass., USA).

[4] = Fluorescence in mouse brain homogenates
Experimental: as §1
Male ICR mice (10-weeks-old) from Daehan Biolink Co. Ltd. (Eumseong, Korea) were used in this experiment. The mice were accommodated at a constant temperature (23±1° C.), humidity (60±10%), and a 12 h light/dark cycle with free access to water and food. The mice were handled in accordance with the Principle of Laboratory Animal Care (NIH Publication No. 80-23; revised 1978) and the Animal Care and Use Guidelines of KyungHee University, Seoul, Korea (approval number: KHUASP(SE)-18-130). Mice were anesthetized with tribromoethanol (20 μL/g of body weight, Sigma Aldrich, USA) and then, the whole brain was removed quickly. After the washing with 0.1 M PBS, the brain tissue was excised by scissors and homogenized with a pellet pestles cordless motor (Sigma Aldrich, USA) in 2 mL of 0.1 M PBS (pH 7.4). The mixture was centrifuged at 1,000 g (Smart R17 Plus centrifuge, Hanil Scientific, Korea) for 15 min at 4° C. and the supernatant was collected. The pooled brain homogenates of 3 mice were collected and diluted to a final volume of 6 mL with PBS and used for fluorescence studies.

Photostability in DMF = type: physicochemical; details: solution in DMF, halogen lamp irradiation 35 min
Experimental: A solution of IRI-1 with an absorbance of 1.0 at the maximum absorbance wavelength was prepared in DMF. A 3100 K halogen lamp (Olympus LG-PS2; 12 V, 100 W) was used for irradiation and the absorbance was recorded at 5 min intervals for 35 min.

[5] = pH-dependent absorbance, pKa fitting; type: physicochemical; details: PBS (10 mM) with pH adjustment; absorbance at 405 nm, pH 2-10, PBS 10 mM
Experimental: The absorbance of IRI-1 (10 μM) was recorded in PBS (10 mM), with pH adjustment, to maintain a constant salt concentration.

Aβ plaques [6] = target: T4, Aβ plaques; experiment: Ex vivo two-photon microscopy imaging of brain slices; parameters: species or system 5xFAD-Tg mice; details: 20 μM, 2 h incubation, n=15
Experimental: Brain tissues were isolated from 11-month-old 5xFAD-Tg mice. All animal protocols were approved by the Institutional Animal Care and Use Committee (IACUC) of KyungHee University, Korea (Approval number: KHUSAP (SE)-18-123). The isolated brain was immediately frozen with dry ice and horizontally sectioned by using a surgical blade (No. 10, […] safety razor Co., LTD, Japan). Sectioned brain tissues were immersed in a DMEM-buffered solution containing IBC 2 or IRI-1 (20 μM), and then incubated at 37° C. for different durations (0.5 h, 1 h and 2 h). After incubation, the brain tissues were washed with PBS (×3) and fixed in 4% paraformaldehyde solution until TPM imaging, using upright microscopy (Leica, Nussloch, Germany). […] TPM images were obtained by collecting the fluorescence from an emission channel of 580-779 nm. To compare the plaque and background signal of IBC 2 and IRI-1, TPM images analyzed by using Leica software. 15 Aβ-plaque regions as well as 15 background regions were randomly chosen for each dye at each incubation time. Bootstrap resampling (n=100,000) was performed on the 15 Aβ and background samples to estimate the population distribution of the signal to background ratios for each of the dyes at the different incubation times as well as to estimate the significance level of the difference of these population distributions.

[7] = Fluorescence response to potential interferents; details: metal ions, amino acids, thiols 20 μM in PBS, λem 566 nm
Experimental: as §1

[8] = target: T5, human serum albumin (HSA) (Homo sapiens, UniProt P02768); experiment: Fluorescence in the presence of HSA; details: HSA 20 μM, PBS pH 7.4, 2% DMF
T5 construct: purchased
T5 sequence (P02768 25-609): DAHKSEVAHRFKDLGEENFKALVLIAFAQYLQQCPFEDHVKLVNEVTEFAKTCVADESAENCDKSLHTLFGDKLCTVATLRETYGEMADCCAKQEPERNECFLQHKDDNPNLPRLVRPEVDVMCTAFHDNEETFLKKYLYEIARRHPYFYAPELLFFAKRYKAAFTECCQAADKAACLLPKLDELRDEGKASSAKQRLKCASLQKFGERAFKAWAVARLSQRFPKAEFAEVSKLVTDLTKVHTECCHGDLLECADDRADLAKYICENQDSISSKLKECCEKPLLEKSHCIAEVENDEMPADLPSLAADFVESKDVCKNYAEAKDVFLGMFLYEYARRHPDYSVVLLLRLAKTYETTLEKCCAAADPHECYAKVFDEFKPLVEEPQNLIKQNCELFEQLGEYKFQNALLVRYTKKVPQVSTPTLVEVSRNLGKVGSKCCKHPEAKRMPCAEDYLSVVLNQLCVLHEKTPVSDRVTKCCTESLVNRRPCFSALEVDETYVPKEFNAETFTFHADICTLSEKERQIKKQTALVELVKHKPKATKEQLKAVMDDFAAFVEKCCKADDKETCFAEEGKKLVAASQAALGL
Experimental: as §1

[9] = Solubility of IRI-1 in PBS (absorbance at 405 nm); type: physicochemical; details: aqueous buffer, kinetic from dmso stock, PBS containing 2% DMSO, read-out: concentration up to which the dye exists as a monomer in PBS, above which soluble aggregates form
Experimental: The absorbance of IRI-1 at different concentrations in the 0-50 μM range was recorded at 405 nm in a PBS solution containing 2% DMSO. Deviation from linearity indicates the formation of aggregates.

SH-SYSY cells = experiment: Cell viability MTT assay; type: cell-based, human; details: concentrations up to 50 μM, 24 h
Experimental: Cell viability was assessed by the MTT (3-4,5-dimethylthiazol-2-yl)-2,5-diphenyltetrazolium bromide) assay. SH-SYSY cells (1×10^4 per well) were treated with various concentrations of IRI-1 in a 96-well plate for 24 h at 37° C.

[10] = pH 7.4, Permeability classification

T1 sequence (P05067 672-713 limits assumed): as the sequence (P05067 672-713 limits assumed) above

Compound: CC(=O)[C@H]1CC[C@H]2[C@@H]3CCC4=CC(=O)CC[C@]4(C)[C@H]3CC[C@]12C [Progesterone, reference compound]
- Papp at 4 h (in vitro; pH 7.4, Pe): 39.5 ± 5.59 ×10⁻⁶ cm/s
- Papp at 4 h (in vitro; [10]): > 0.4 ×10⁻⁶ cm/s

Compound: Cc1ccc2c(c1)sc(-c1ccc(N(C)C)cc1)[n+]2C.[Cl-] [Thioflavin T]
- Permeability classification [1]: Not permeable
- Pe ([1]; pH 7.4, 4 h at 25° C., mean and standard deviation, n = 3): 0^c 10^−6 cm/s
- fluorescence enhancement in the presence of Aβ fibrils (Aβ fibrils): 20 fold

Compound: CN(C)c1ccc(-c2ccc3cc(C#N)c(=N)oc3c2)cc1 [IRI-1]
- fluorescence enhancement in the presence of BSA [2]: only relatively weak fluorescence enhancement
- Kd (Aβ fibrils (Aβ1-42); Aβ fibrils 10 μM, IRI-1 0-50 μM, PBS containing 2% DMF, nonlinear fitting, read-out: binding affinity toward Aβ fibrils, Kd): 374 ± 115 nM
- N, number of equivalent binding sites on the Aβ fibril relative to Aβ monomer (Aβ fibrils (Aβ1-42); best fitting, one binding site per 4 Aβ1-42): ¼
- binding affinity relative to that previously reported for ThT (Aβ fibrils (Aβ1-42); versus literature value for ThT): two- to three-folds stronger
- BBB penetration (Aβ plaques [3]; 5 mg kg^−1 i.p.): good BBB penetration
- time to full saturation of fluorescence enhancement of Aβ plaques in the frontal cortex (Aβ plaques [3]; 5 mg kg^−1 i.p., excitation 920 nm): approximately 40 min
- depth up to which individual Aβ plaques could be detected (Aβ plaques [3]; 3D two-photon imaging, 5 mg kg^−1 i.p.): ≤ 172
- overlap of images with co-administered MeO-X04 (Aβ plaques [3]; co-administration, frontal cortex): near perfect overlap
- fluorescence enhancement in the presence of mouse brain homogenates [4]: only relatively weak fluorescence enhancement
- Papp at 4 h (in vitro; pH 7.4, Pe): 0.562 ± 0.053 ×10⁻⁶ cm/s
- Papp at 4 h (in vitro; [10]): > 0.4 ×10⁻⁶ cm/s
- resistance to photobleaching (Photostability in DMF): relatively high resistance to photobleaching
- pKa [5]: 4.22 ± 0.12
- fluorescence enhancement in the presence of Aβ fibrils (Aβ fibrils): 167 fold
- signal-to-background ratio, elevation compared to IBC-2 (Aβ plaques [6]): approximately 3.75 fold
- fluorescent response to potential interferants [7]: no or negligible fluorescence enhancement
- fluorescence enhancement in the presence of HSA [8]: only relatively weak fluorescence enhancement
- solubility [9]: 4.7 µM (≈ 1.36 µg/mL)
- cytotoxicity (SH-SYSY cells): no significant toxicity
